# Patent US5157123A, “S-(2-thiopyridyl)-L-cysteine, a heterobifunctional crosslinking reagent” (priority 1989, dated 1992)
# Where a name gives a salt, the structure may show the parent alone.
# Experiments:
# [1] = Water solubility of crosslinkers; format: physicochemical; conditions: distilled water
# [2] = tested on: human monoclonal IgM antibody 1688; test: Incorporation of TPCH versus TPMPH into IgM antibody 1688 (periodate oxidation, pyridine-2-thione release at 343 nm); conditions: identical coupling conditions, FIG. 2
# Method: Human IgM (2.5 mg) in 0.1M sodium acetate, pH 5.5 (1 mg IgM/ml) was oxidized in the presence of 10.7 mg (50 μmoles) NaIO4 and 7 mg (19.8 μmoles) of TPCH. After 20 minutes at 0° C. the reaction mixture was chromatographed on a Sephadex G-25 column to remove access NaIO4 and uncoupled TPCH. The derivatized IgM molecules were eluted with 0.1M sodium phosphate, 0.1M sodium chloride, pH 7.5, and stored at 4° C. The extent of modification was determined to be 17 TPCH molecules per IgM by monitoring the release of pyridine-2-thione at 343 nm during incubation of the derivatized antibody in the presence of 10 mM dithiothreitol as described in J. Carlsson, H. Drevin, and R. Axen, Biochem. J., vol. […]
# Human IgM (2.5 mg) was oxidized in 1.25 ml of 0.1M sodium acetate, pH 5.5, in the presence of 5.3 mg sodium periodate with either 6.9 mg (20 μmoles) of TPCH trihydrochloride (M.W.=353.5 daltons) or 4.4 mg (20 μmoles) of TPMPH (M.W.=229.3 daltons) at 0° C. […] The derivatized IgM molecules were eluted with 0.1M sodium phosphate, 0.1 M sodium chloride, pH 7.5 The extent of modification was determined as described above.
# Human IgM (2.5 mg) was oxidized in the presence of 0.27 mg sodium periodate under identical conditions as described above. The extent of derivatization was determined after 20 minutes of incubation using the procedure described above.
SMILES,water solubility (concentration to which it can be easily dissolved) [1],"increase in time required for incorporation of comparable amounts of crosslinker per antibody, versus TPCH [2]",maximum solubility [1]
"NNC(=O)[C@@H](N)CSSc1ccccn1 [TPCH, S-(2-Thiopyridyl)-L-Cysteine Hydrazide Trihydrochloride]",≥ 1000 mM,–,–
"NNC(=O)CCSSc1ccccn1 [TPMPH, S-(2-thiopyridyl)-mercaptopropionic acid hydrazide]",–,~3 fold,150 mM
